The values below come from US20140271680A1, “METHODS AND PHARMACEUTICAL COMPOSITIONS FOR TREATMENT OF PULMONARY HYPERTENSION” (UNIVERSITE PARIS-EST CRETEIL VAL DE MARNE, priority 2011, published 2014).

SMILES strings stand for the structures.

Assay [1] concerns human pulmonary-artery smooth muscle cells (PA-SMCs). In words: CCL5-stimulated proliferation of human pulmonary-artery smooth muscle cells (MTT assay). It is filed as cell-based. To be noted: 48 h with CCL5 and Maraviroc, FIG. 4. The protocol: The effects of Maraviroc on cell proliferation was investigated in primary cultures of human pulmonary-artery smooth muscle cells (PA-SMCs) collected from lung tissue samples of patients undergoing lung resection surgery. Cell proliferation was assessed by using the tetrazolium salt (MTT) assay (Sigma, Lyon, France) during conditions of stimulation with the CCR5 ligand CCL5. Human PA-SMCs were seeded onto 24-well for 48 h. PA-SMCs were synchronized for 48 h in media without serum prior cell proliferation stimulation in presence of CCL5 or CCL5 and Maraviroc. 48 hours after, MTT (100 μg/mL) was added and incubated for 4 h. The media was removed and crystals formed were dissolved in […] of dimethylsulfoxide (DMSO, Sigma) and the mixture was shaken for a few minutes to achieve complete dissolution. Aliquots (200 μL) of the resulting solutions were transferred to 96-well plates and absorbance was recorded at 520 nm using the Microplate Spectrophotometer System.
In general terms: Formazan colour is commonly taken as a measure of viable cells.

In another assay the test system is wild-type (WT) mice. In words: hypoxic pulmonary hypertension in wild-type mice (chronic hypoxia 9% O2). The conditions noted are these: Maraviroc 200 mg/kg/day. It is filed as in vivo.
The test system of assay [2] is CCR5 knock-in (KICCR5) mice. Nature of the assay: hypoxic pulmonary hypertension in CCR5 knock-in mice (chronic hypoxia 9% O2). It is filed as in vivo. To be noted: Maraviroc 200 mg/kg/day. From the text: To assess the inhibitory effects of the CCR5 antagonist Maraviroc on development of pulmonary hypertension in mice, the inventors used CCR5 knock-in mice in which the murine CCR5 gene was replaced by the human CCR5 gene. CCR5 knock-in mice were used in these experiments because Maraviroc binds to the human CCR5 but not to the murine CCR5 protein.
Male mice (12 months old), were exposed to chronic hypoxia (9% O2) in a ventilated chamber (Biospherix, New York, N.Y.). Mice were anesthetized with ketamine (60 mg/Kg) and xylazine (10 mg/Kg) intraperitoneally. A 26-gauge needle connected to a pressure transducer was inserted into the right ventricle, and right ventricular systolic pressure (RVSP) was recorded. After the assessment of hemodynamic parameters, all mice were sacrificed by cardiac puncture and exsanguinations. The heart was dissected out and weighed for calculation of the Fulton index (ratio of right ventricular free wall weight over the sum of the septum plus left ventricular free wall weights: RV/LV+S). The left lung was inflated and fixed with formalin buffer for assessments of pulmonary vessel muscularization and of PA-SMC proliferation using Ki67 immunostaining

On to `Cc1nnc(C(C)C)n1[C@@H]1C[C@H]2CC[C@@H](C1)N2CC[C@H](NC(=O)C1CCC(F)(F)CC1)c1ccccc1` [Maraviroc, 4,4-difluoro-N-{(1S)-3-[3-(3-isopropyl-5-methyl-4H-1,2,4-triazol-4-yl)-8-azabicyclo[3.2.1]oct-8-yl]-1-phenylpropyl}cyclohexanecarboxamide], for which, in assay [1], the “Proliferation of human pulmonary artery smooth muscle cells stimulated by the CCR5 ligand CCL5” value is reported as “significantly reduced”. Besides, the “Right ventricular systolic pressure (RVSP)” value was “not in WT mice” in the assay with wild-type (WT) mice (FIG. 3A) and “reduction” in assay [2] (FIG. 3A). The “proliferative cells detected by ki67 immunostaining” value is on record as “not in WT mice” in the assay with wild-type (WT) mice (FIG. 3D) and “reduction” in assay [2] (FIG. 3D). Moreover, the Fulton index entry in assay [2] (FIG. 3B) was “reduction”. Also, the “% of muscularized vessels” value in assay [2] (FIG. 3C) was “reduction”.
